# Read-outs that look alike come from different tables or passages of the source. Ends that are not written are not given here.
# Experiments:
# H2-K^b [1] = target: T1, H2-K^b (Mus musculus, UniProt P01901); experiment: MHC peptide binding assay, purified H2-K^b
# T1 construct: made in house
# T1 sequence (P01901 22-369): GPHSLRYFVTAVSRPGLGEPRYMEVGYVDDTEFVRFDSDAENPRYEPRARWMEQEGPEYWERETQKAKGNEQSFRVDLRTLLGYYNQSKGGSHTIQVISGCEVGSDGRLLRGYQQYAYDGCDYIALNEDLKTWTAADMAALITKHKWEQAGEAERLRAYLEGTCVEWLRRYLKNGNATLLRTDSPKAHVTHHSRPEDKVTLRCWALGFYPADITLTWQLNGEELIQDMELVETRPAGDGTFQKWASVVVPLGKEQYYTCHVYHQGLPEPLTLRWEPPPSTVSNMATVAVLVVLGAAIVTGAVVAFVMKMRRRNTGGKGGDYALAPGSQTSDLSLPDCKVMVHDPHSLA
# T1 sequence (P01887 21-119 partner): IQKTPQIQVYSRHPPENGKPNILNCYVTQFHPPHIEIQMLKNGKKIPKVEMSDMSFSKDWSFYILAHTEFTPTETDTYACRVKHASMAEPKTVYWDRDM
# Method: MHC purification, and quantitative assays to measure the binding affinity of peptides to purified H2-K^b, H2-D^b, and HLA-A*0201 molecules were performed as previously described ([49], [50]).
# H2-K^b [2] = target: T1, H2-K^b; details: MHC K^b; geometric mean of 5 or more experiments; Published in ref [19]; read-out: Affinity of peptide for MHC (IC50); cited from earlier work
# H2-D^b = H2-D^b (Mus musculus, UniProt P01899); details: MHC D^b; geometric mean of 5 or more experiments; Published in ref [19]; read-out: Affinity of peptide for MHC (IC50); cited from earlier work
# Sequence of H2-D^b (P01899 whole entry, looked up): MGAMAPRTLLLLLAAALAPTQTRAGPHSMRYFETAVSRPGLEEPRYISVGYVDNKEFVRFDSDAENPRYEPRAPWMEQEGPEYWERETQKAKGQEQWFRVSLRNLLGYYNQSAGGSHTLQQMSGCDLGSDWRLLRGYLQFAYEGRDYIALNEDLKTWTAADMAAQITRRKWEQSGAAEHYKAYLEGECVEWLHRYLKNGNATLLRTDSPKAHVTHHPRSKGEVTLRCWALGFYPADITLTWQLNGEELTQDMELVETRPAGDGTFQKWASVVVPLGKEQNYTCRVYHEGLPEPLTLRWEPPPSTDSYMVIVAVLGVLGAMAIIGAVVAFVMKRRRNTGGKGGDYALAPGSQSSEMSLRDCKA
# [3] = Affinity of peptide for MHC (IC50), MHC K^b, purified H2-K^b, geometric mean of 5 or more experiments
sequence,measurement,setting,value
SNFVSAGI [p68 (547-554)],IC50,H2-K^b [1]; [3],22 nM
YTLIYRQL [A6L (265-272)],IC50,H2-K^b [2],6 nM
IGMFNLTFI [A23R (297-305)],IC50,H2-D^b,0.34 nM
"SNFVFAGI [mp68 (547-554, 5F)]",IC50,H2-K^b [1]; [3],0.48 nM
same,IC50,"H2-K^b [1]; binding to MHC Class I molecules with very high affinity (bound), discussion statement, very high affinity",< 1 nM
